# From ChEMBL document CHEMBL1201862, “PubChem BioAssay data set” (2004)
# The source made the active and inactive calls.
# Key:
# HeLa = assay: ATP-based viability loss in HeLa cells – cell-based, CellTiter-Glo luminescence, cherry-pick samples, cytotoxicity control for MITF activator project, dose response (AID 540259); format: functional; conditions: Homo sapiens
# Genome polyprotein = Genome polyprotein (dengue virus type 2, UniProt P29990); assay: flavivirus cap methylation enzyme inhibition – biochemical, confirmation dose response, primary screen (AID 588689); format: functional
# Genome polyprotein, sequence (P29990 2492-3391 limits assumed): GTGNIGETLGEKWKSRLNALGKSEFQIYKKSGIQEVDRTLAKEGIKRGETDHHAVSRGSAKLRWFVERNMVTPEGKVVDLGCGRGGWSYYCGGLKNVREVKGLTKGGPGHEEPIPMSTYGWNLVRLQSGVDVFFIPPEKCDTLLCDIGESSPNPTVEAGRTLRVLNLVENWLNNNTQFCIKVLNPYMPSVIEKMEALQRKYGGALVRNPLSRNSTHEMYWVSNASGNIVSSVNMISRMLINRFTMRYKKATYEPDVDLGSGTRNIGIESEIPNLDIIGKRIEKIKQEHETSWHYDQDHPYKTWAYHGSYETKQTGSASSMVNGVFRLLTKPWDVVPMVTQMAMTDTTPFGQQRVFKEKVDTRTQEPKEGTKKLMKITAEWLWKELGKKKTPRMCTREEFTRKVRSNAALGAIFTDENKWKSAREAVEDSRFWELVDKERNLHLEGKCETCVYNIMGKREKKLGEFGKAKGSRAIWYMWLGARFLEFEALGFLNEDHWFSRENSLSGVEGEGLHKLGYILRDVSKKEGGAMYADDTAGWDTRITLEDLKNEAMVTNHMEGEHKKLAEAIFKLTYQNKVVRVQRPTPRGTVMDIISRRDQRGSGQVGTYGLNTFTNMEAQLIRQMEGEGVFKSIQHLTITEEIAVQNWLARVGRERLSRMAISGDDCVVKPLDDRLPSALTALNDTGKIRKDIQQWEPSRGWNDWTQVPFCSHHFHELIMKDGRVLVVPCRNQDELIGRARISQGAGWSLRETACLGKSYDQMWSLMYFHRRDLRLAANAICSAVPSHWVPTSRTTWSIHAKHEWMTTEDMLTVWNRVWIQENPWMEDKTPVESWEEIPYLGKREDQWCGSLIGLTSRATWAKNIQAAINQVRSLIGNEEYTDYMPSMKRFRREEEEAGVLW
# [1] = target: T1, Ubiquitin-conjugating enzyme E2 N (Homo sapiens, UniProt P61088); format: functional
# T1 sequence (P61088 whole entry): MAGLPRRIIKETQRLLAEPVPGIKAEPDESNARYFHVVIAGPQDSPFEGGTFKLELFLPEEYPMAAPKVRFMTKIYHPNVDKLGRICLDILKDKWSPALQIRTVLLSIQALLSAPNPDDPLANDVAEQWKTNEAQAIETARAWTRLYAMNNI
# CHO = CHO cell viability loss, potency – luminescence, cytotoxicity control for TLR9-MyD88 binding inhibitor project, dose response (AID 588339); format: functional, cell-based, hamster; conditions: Cricetulus griseus;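 also: CHO cells stably coexpressing TLR9 and MyD88 fusions from primary screen; compound exposure lasted 48 hours before viability readout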
# [2] = loss of viability in HepG2 cells – cell-based, CellTiter-Glo, cherry-picked, cytotoxicity control for Shn3 inhibitor project, dose response (AID 624134); format: functional
# Protein RecA = target: T2, Protein RecA (Mycobacterium tuberculosis, UniProt P9WHJ3); assay: Fluorescence Cell-Free Homogeneous Dose Retest to Identify Inhibitors of RecA-Intein Splicing Activity. [Related pubchem assays (depositor defined):AID2097, AID2223, AID489010, AID492950]; format: functional
# T2 sequence (P9WHJ3 whole entry): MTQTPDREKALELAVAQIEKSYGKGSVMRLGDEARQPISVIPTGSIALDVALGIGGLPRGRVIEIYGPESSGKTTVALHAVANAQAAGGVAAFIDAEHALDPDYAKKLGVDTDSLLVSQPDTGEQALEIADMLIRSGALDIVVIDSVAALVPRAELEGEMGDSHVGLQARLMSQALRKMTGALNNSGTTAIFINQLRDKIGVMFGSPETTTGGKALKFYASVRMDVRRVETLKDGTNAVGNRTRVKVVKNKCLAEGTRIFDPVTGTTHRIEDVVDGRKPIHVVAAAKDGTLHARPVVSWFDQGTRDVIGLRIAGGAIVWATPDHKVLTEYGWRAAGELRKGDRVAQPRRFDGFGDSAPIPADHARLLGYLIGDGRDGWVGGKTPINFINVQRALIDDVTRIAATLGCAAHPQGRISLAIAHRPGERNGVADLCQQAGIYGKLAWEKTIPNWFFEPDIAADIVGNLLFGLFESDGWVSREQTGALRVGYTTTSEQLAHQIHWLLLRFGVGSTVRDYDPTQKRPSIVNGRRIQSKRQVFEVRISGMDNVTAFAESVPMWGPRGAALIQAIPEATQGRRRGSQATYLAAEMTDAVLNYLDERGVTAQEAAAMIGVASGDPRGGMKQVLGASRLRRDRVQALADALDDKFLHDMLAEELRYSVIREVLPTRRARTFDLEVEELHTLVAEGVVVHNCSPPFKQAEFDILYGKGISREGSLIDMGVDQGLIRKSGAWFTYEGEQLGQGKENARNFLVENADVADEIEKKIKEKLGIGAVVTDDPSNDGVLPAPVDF
# [3] = target: T3, Microphthalmia-associated transcription factor (Homo sapiens, UniProt O75030); assay: reducers of TRPM1 reporter luminescence, concentration series – cell-based, SK-MEL-5, cherry-picked, set 3, MITF inhibitor project, dose response (AID 493073); format: functional;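 also: SK-MEL-5 melanoma cells with luciferase driven by the MITF target TRPM1 promoter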
# T3 sequence (O75030 whole entry): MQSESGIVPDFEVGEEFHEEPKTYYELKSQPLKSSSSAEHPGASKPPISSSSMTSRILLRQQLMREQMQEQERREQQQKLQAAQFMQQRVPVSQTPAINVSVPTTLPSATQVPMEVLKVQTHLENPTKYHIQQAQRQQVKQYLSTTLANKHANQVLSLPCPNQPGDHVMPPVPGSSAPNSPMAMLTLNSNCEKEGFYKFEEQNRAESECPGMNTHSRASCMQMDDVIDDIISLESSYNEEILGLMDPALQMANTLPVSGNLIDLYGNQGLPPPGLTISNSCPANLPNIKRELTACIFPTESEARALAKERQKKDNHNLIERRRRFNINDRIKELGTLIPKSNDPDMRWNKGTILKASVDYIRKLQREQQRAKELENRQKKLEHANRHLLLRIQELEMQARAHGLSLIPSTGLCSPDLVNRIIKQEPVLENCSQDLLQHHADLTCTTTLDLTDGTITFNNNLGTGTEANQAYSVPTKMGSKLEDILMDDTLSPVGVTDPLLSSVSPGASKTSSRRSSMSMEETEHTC
# [4] = reduction of Shn3 3'UTR-driven luciferase in osteoblasts – cell-based, Clone20 osteoblasts, firefly luciferase, cherry-picked, dose response (AID 624132); format: functional;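 also: firefly luciferase luminescence from reporter carrying the Shn3 3'UTR in osteoblasts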
# [5] = target: T1, Ubiquitin-conjugating enzyme E2 N; format: functional; remark: listed apart in the source
# Bcl-2-related protein A1 = target: T4, Bcl-2-related protein A1 (Mus musculus, UniProt Q07440); format: functional;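 also: confirmatory dose–response counterscreen on Bfl-1, used to check hits from a UBC13 polyubiquitin inhibitor campaign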
# T4 sequence (Q07440 whole entry): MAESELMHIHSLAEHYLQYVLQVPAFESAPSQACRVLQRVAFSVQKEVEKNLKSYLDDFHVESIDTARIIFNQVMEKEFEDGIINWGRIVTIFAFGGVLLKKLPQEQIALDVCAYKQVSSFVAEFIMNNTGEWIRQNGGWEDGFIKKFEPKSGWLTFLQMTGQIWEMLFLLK
# [6] = Luminescence Cell-Based Dose Retest to Confirm Inhibitors of Cancer Stem Cells. [Related pubchem assays (depositor defined):AID2717, AID2721]; format: functional; conditions: Homo sapiens
# [7] = target: T5, Replicative DNA helicase DnaB (Mycobacterium tuberculosis, UniProt P9WMR3); assay: DnaB intein splicing inhibitors, dose response, biochemical, cell-free fluorescence (AID 449749); format: functional
# T5 sequence (P9WMR3 whole entry): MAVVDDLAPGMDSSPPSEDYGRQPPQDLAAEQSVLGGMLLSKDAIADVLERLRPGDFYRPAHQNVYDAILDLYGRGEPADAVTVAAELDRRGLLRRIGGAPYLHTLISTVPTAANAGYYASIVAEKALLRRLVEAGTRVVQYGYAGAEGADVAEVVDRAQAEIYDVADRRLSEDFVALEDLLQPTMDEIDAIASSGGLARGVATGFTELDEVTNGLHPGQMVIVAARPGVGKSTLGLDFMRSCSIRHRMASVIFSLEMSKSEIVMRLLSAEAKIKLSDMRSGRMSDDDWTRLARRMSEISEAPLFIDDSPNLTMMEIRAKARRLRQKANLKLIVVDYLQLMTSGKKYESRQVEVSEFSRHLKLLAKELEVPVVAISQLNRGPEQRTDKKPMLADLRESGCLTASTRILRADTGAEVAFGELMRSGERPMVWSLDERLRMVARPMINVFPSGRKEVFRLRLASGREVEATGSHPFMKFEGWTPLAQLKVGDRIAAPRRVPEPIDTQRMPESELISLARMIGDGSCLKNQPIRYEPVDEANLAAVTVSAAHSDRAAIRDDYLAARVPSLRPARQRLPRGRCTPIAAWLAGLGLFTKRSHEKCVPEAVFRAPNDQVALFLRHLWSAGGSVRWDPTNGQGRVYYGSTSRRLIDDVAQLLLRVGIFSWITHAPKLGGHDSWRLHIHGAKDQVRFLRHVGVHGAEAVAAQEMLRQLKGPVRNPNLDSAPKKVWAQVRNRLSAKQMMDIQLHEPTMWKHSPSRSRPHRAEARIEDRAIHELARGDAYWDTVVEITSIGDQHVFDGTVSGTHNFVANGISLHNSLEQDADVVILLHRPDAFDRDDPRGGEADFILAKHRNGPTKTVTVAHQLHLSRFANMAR
# [8] = non-specific 3'UTR reporter inhibition in Clone20-Shn3RL – cell-based, Renilla luciferase, cherry-picked, counter-screen for Shn3 inhibitor project, dose response (AID 624133); format: functional
# Beta Lactamase = Beta Lactamase (Pseudomonas aeruginosa, UniProt Q932Y6); assay: BLA reporter interference, concentration series – BLA reporter cells, FRET fluorescence, artefact control for TLR9-MyD88 binding inhibitor project, dose response (AID 588341); format: cell-based;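 also: cell based assay in CHO-K1 cells stably expressing beta-lactamase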
# Beta Lactamase, sequence (Q932Y6 whole entry): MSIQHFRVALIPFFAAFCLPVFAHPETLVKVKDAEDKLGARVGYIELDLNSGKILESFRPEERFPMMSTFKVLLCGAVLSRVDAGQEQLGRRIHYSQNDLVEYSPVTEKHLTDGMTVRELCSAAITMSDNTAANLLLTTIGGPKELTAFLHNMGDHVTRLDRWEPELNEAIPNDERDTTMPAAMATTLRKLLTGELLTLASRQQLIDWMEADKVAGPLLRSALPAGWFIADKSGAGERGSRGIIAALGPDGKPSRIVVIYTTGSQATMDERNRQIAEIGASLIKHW
# Prothrombin = Prothrombin (Bos taurus, UniProt P00735); assay: thrombin protease inhibitors – biochemical, fluorescence polarization, uHTS hits, dose response (AID 602369); format: functional
# [9] = target: 26S proteasome non-ATPase regulatory subunit 14 (Homo sapiens, UniProt O00487); assay: inhibition of proteasome subunit RPN11 – biochemical, fluorescence polarization, uHTS hits, confirmation (AID 602368); format: functional
# 26S proteasome non-ATPase regulatory subunit 14, sequence (O00487 whole entry): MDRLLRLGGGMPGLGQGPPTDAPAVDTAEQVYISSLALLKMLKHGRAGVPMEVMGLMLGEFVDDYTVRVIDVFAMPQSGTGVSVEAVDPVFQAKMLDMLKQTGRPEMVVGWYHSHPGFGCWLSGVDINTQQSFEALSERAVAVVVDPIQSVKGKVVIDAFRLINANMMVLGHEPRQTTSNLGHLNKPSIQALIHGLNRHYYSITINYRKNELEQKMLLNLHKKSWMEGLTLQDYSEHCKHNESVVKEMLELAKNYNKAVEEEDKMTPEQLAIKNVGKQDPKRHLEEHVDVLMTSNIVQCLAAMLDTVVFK
# [10] = target: 72 kDa type IV collagenase (Homo sapiens, UniProt P08253); assay: Dose Response validation of uHTS RPN11 inhibitor hits using a MMP-2 Fluorescence assay.; format: functional
# 72 kDa type IV collagenase, sequence (P08253 whole entry, the tested form may be a part): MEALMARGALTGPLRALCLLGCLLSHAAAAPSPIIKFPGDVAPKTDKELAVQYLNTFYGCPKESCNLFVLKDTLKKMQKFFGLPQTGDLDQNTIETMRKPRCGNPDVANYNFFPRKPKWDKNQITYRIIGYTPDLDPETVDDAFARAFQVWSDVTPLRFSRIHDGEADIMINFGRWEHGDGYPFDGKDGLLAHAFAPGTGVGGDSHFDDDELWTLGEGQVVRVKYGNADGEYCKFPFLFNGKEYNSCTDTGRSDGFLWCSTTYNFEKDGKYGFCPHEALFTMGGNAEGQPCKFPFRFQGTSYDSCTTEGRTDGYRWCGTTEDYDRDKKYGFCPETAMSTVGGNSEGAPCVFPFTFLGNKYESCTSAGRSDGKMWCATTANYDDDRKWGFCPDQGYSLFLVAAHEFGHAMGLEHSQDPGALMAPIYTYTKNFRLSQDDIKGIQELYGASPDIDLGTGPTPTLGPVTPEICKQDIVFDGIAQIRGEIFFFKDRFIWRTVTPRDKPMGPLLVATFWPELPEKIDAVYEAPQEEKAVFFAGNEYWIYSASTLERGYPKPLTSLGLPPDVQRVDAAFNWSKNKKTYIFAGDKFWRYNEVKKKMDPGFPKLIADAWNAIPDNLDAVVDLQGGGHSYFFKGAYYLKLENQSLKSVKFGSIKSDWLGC
# [11] = target: T6, Carboxy-terminal domain RNA polymerase II polypeptide A small phosphatase 1 (Homo sapiens, UniProt Q9GZU7); assay: CTDSP1 inhibitors, concentration-response, biochemical, absorbance readout, ultra-high-throughput screen actives (AID 540297); format: functional
# T6 sequence (Q9GZU7 whole entry): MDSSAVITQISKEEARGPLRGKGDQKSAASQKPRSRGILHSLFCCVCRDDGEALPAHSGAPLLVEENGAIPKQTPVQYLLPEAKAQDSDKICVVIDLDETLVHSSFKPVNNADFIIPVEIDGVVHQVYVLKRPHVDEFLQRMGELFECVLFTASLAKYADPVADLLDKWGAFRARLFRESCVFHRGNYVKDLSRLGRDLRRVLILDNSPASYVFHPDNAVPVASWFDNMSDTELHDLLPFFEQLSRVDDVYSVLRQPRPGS
# SN12K1 = assay: cells; format: functional; conditions: Homo sapiens
# P388/ADR = assay: cells; format: functional; conditions: Mus musculus
# P388 = assay: cells; format: functional; conditions: Mus musculus
# [12] = target: T7, Endoribonuclease toxin MazF (Escherichia coli K-12, UniProt P0AE70); assay: activation of MazEF endoribonuclease cleavage – biochemical, fluorescence, single-stranded RNA substrate, uHTS hits, dose response (AID 588481); format: functional
# T7 sequence (P0AE70 whole entry): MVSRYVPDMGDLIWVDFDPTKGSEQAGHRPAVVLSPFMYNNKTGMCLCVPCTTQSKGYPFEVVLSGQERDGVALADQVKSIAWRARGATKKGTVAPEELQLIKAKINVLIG
# [13] = target: T7, Endoribonuclease toxin MazF; assay: substrate-only fluorescence increase artefacts – biochemical, single-stranded RNase substrate, counter-screen for MazEF activator project, dose response (AID 588502); format: functional
structure (smiles),measurement,setting,value
O=C(Nc1ccc(-c2nc3cccnc3s2)cc1)c1ccc(Cl)nc1,AC50,HeLa,201 µM (active)
CS(=O)(=O)c1ncc(Cl)c(C(=O)Nc2ccc(N3CCOCC3)cc2)n1,IC50,Genome polyprotein,> 100 µM (active)
same,IC50,[1],14.9 µM (active)
same,IC50,CHO,4.79 µM (active)
same,AC50,[2],24 µM (active)
same,EC50,Protein RecA,12.8 µM (active)
same,AC50,[3],22.8 µM (active)
same,AC50,[4],1.21 µM (active)
same,IC50,[5],> 20 µM (inactive)
same,IC50,Bcl-2-related protein A1,> 20 µM (inactive)
same,AC50,[6],5.14 µM (active)
same,AC50,[7],4.51 µM (active)
same,AC50,[8],12.9 µM (active)
same,IC50,Beta Lactamase,10.2 µM (inactive)
O=c1nc2sc3ccccc3n2c(=O)n1-c1ccc(Cl)cc1,AC50,HeLa,43.9 µM (active)
Cc1ccc(C(=O)Nc2cccc(O)c2)cc1S(=O)(=O)N1CCCCCC1,AC50,HeLa,321 µM (active)
CCCC(=O)Nc1nc(-c2ccccc2)ns1,AC50,HeLa,64.7 µM (active)
Cc1ccc(CNC(=O)c2nnn(CC(=O)Nc3cc(C)cc(C)c3)c2N)cc1,IC50,Prothrombin,76.5 µM (active)
same,IC50,[9],35.4 µM (active)
same,IC50,[10],> 100 µM (inactive)
COc1ccccc1Cc1c(-c2cccc(Cl)c2)nc2ccc(Br)cn12,IC50,Prothrombin,8.29 µM (active)
same,IC50,[9],14.2 µM (active)
same,IC50,[10],> 100 µM (inactive)
O=C(CSc1nc2sc3c(c2c(=O)n1-c1ccccc1)CCCC3)N/N=C/c1ccccc1C(=O)O,IC50,[11],9.27 µM (active)
O=C(NC(Cc1ccc(I)cc1)C(=O)O)c1ccc(Br)cc1 (centres undefined),GI50,SN12K1,> 100 µM (inactive)
same,GI50,P388/ADR,21.3 µM (inactive)
same,GI50,P388,53.7 µM (inactive)
C/C(=N\Nc1ccc([N+](=O)[O-])cc1)c1cc2ccccc2o1,IC50,Prothrombin,1.62 µM (active)
same,IC50,CHO,49.7 µM (inactive)
same,IC50,[9],1.82 µM (active)
same,IC50,[10],> 100 µM (inactive)
same,IC50,Beta Lactamase,3 µM (active)
CC(C)=CCC(OC(=O)C=C(C)C)c1cc(O)c2c(c1O)C(=O)C=CC2=O (centres undefined),GI50,SN12K1,1.2 µM (inactive)
same,GI50,P388/ADR,0.023 µM (active)
same,GI50,P388,0.0296 µM (active)
COc1cc(/N=N\c2ccc(OC)c(S(=O)(=O)O)c2)c(C)cc1/N=N\c1ccc(/C=C/c2ccc(/N=[N+](/[O-])c3ccc(/C=C/c4ccc(/N=N/c5cc(C)c(/N=N\c6ccc(OC)c(S(=O)(=O)O)c6)cc5OC)cc4S(=O)(=O)O)c(S(=O)(=O)O)c3)cc2S(=O)(=O)O)c(S(=O)(=O)O)c1,GI50,SN12K1,> 100 µM (inactive)
same,GI50,P388,> 100 µM (inactive)
COc1cc(C2c3cc4c(cc3[C@@H](Nc3ccc([N+](=O)[O-])cc3)C3COC(=O)[C@H]23)OCO4)cc(OC)c1O (some centres undefined),GI50,SN12K1,0.0427 µM (active)
same,GI50,P388/ADR,0.324 µM (active)
same,GI50,P388,< 0.01 µM (active)
CCOc1ccccc1C(=O)Nc1cc(Cl)ccc1O,EC50,[12],38 µM (inactive)
same,EC50,[13],> 99 µM (inactive)
Cc1[nH]c2ccccc2c1/C=C(\C#N)C(=O)NCc1ccccc1,EC50,[12],> 99 µM (inactive)
same,EC50,[13],> 99 µM (inactive)
